Assay results from ChEMBL document CHEMBL3994561 (Medchemcomm, 2016).
Calls of active or inactive are those of the source. The calls are words filed in the database; no cut-off is given here.

How the values were obtained:
[1] = test system: MCF7; assay: Cytotoxicity against human MCF7 cells after 48 hrs by MTT assay; assay type: functional, cell-based; conditions: MCF7, 48 h
[2] = test system: NALM-6; assay: Cytotoxicity against human NALM6 cells after 48 hrs by MTT assay; assay type: functional, cell-based; conditions: NALM-6, 48 h
[3] = test system: HL-60; assay: Cytotoxicity against human HL60 cells after 48 hrs by MTT assay; assay type: functional, cell-based; conditions: HL-60, 48 h
[4] = test system: MCF7; assay: Disruption of mitochondrial membrane potential in human MCF7 cells assessed as collapse of the mitochondrial membrane potential at 12.76 +/- 0.46 uM after 24 hrs by JC10 staining-based flow cytometric method (reference value: 23.9%); assay type: functional
[5] = test system: MCF7; assay: Cell cycle arrest in human MCF7 cells assessed as accumulation at S phase at 12.76 +/- 0.46 uM after 24 hrs by propidium iodide staining-based flow cytometric analysis (reference value: 25.9%); assay type: functional
[6] = test system: MCF7; assay: Induction of apoptosis in human MCF7 cells assessed as late apoptotic cells at 12.76 +/- 0.46 uM after 24 hrs by annexin V-FITC/propidium iodide staining-based flow cytometric method (reference value: 10.1 +/- 0.2%); assay type: functional
[7] = test system: MCF7; assay: Cell cycle arrest in human MCF7 cells assessed as accumulation at G2/M phase at 12.76 +/- 0.46 uM after 24 hrs by propidium iodide staining-based flow cytometric analysis (reference value: 20.3%); assay type: functional
[8] = Selectivity index, ratio of IC50 for human MCF10A cells to IC50 for human NALM6 cells; assay type: functional
[9] = Selectivity index, ratio of IC50 for human MCF7 cells to IC50 for human MCF10A cells; assay type: functional
[10] = test system: MCF7; assay: Cytotoxicity against human MCF7 cells after 24 hrs by MTT assay; assay type: functional, cell-based; conditions: MCF7, 24 h
[11] = test system: MCF7; assay: Induction of apoptosis in human MCF7 cells assessed as upregulation of caspase-3 mRNA level at 12.76 +/- 0.46 uM by quantitative real-time PCR method; assay type: functional, cell-based
[12] = test system: MCF7; assay: Induction of apoptosis in human MCF7 cells assessed as downregulation of Bcl-2 mRNA level at 12.76 +/- 0.46 uM by quantitative real-time PCR method; assay type: functional, cell-based
[13] = test system: HUVEC; assay: Cytotoxicity against human HUVEC cells after 48 hrs by MTT assay; assay type: cell-based
[14] = Selectivity index, ratio of IC50 for human MCF10A cells to IC50 for human MCF7 cells; assay type: functional
[15] = test system: MCF7; assay: Induction of apoptosis in human MCF7 cells assessed as viable cells at 12.76 +/- 0.46 uM after 24 hrs by annexin V-FITC/propidium iodide staining-based flow cytometric method (reference value: 83.4%); assay type: functional
[16] = test system: MCF7; assay: Disruption of mitochondrial membrane potential in human MCF7 cells assessed as intact mitochondrial membrane at 12.76 +/- 0.46 uM after 24 hrs by JC10 staining-based flow cytometric method (reference value: 76.1%); assay type: functional
[17] = test system: MCF7; assay: Cell cycle arrest in human MCF7 cells assessed as accumulation at G0/G1 phase at 12.76 +/- 0.46 uM after 24 hrs by propidium iodide staining-based flow cytometric analysis (reference value: 52.2%); assay type: functional
[18] = test system: MCF7; assay: Induction of apoptosis in human MCF7 cells assessed as early apoptotic cells at 12.76 +/- 0.46 uM after 24 hrs by annexin V-FITC/propidium iodide staining-based flow cytometric method (reference value: 1.7%); assay type: functional
[19] = test system: MCF7; assay: Induction of apoptosis in human MCF7 cells assessed as upregulation of Bax mRNA level at 12.76 +/- 0.46 uM by quantitative real-time PCR method; assay type: functional, cell-based
[20] = test system: MCF7; assay: Induction of apoptosis in human MCF7 cells assessed as necrotic cells at 12.76 +/- 0.46 uM after 24 hrs by annexin V-FITC/propidium iodide staining-based flow cytometric method (reference value: 4.1%); assay type: functional
[21] = test system: MCF-10A; assay: Cytotoxicity against human MCF10A cells after 48 hrs by MTT assay; assay type: cell-based
[22] = test system: MCF7; assay: Cell cycle arrest in human MCF7 cells assessed as accumulation at sub G0/G1 phase at 12.76 +/- 0.46 uM after 24 hrs by propidium iodide staining-based flow cytometric analysis (reference value: 1.3%); assay type: functional

Row | SMILES | IC50 [1] | IC50 [2] | IC50 [3] | other results
1 | C=C1C(=O)Oc2ccccc2[C@H]1[C@@H]1COCCC1=O (relative stereo) | 26.3 µM | 13.6 µM | 42.7 µM | 
2 | C=C1C(=O)Oc2ccccc2[C@H]1[C@@H]1CCc2cc(OC)ccc2C1=O (relative stereo) | 76.5 µM | 0.51 µM | 5.29 µM | 
3 | C=C1C(=O)Oc2ccccc2[C@H]1[C@@H]1CCCC1=O | 14.7 µM | 488 µM | 578 µM | 
4 | C=C1C(=O)Oc2c(OC)cccc2C1CC(C)=O (configuration not stated) | 10.5 µM | 73.2 µM | 90.9 µM | 
5 | C=C1C(=O)Oc2ccc(Cl)cc2[C@H]1[C@@H]1CCCCC1=O (relative stereo) | 3.45 µM | 94.6 µM | 84.9 µM | 
6 | C=C1C(=O)Oc2ccccc2[C@H]1[C@@H]1CCCCC1=O | 8 µM | 85.6 µM | 629 µM | 
7 | C=C1C(=O)Oc2ccccc2[C@H]1[C@@H]1Cc2cc(OC)ccc2C1=O (relative stereo) | 77.6 µM | 0.65 µM | 5.48 µM | 
8 | C=C1C(=O)Oc2ccc(Cl)cc2[C@H]1[C@@H]1Cc2ccccc2C1=O (relative stereo) | 15.2 µM | 6.56 µM | 7.48 µM | 
9 | C=C1C(=O)Oc2ccccc2C1CC(C)=O (configuration not stated) | 11.5 µM | 94.4 µM | 84.1 µM | 
10 | C=C1C(=O)Oc2c(OC)cccc2[C@H]1[C@@H]1CCCCC1=O (relative stereo) | 8.75 µM | 4.14 µM | 6.06 µM | Activity [4]: 52.5%; Activity [5]: 29.7%; Activity [6]: 28.7%; Activity [7]: 16.5%; Ratio IC50 [8]: 5; Ratio IC50 [9]: 5; IC50 [10]: 12.8 µM; Activity [11]: Active; Activity [12]: Active; IC50 [13]: 4.7 µM; Ratio IC50 [14]: 2; Activity [15]: 64%; Activity [16]: 47.5%; Activity [17]: 36%; Activity [18]: 2.2%; Activity [19]: Active; Activity [20]: 5%; IC50 [21]: 16.4 µM; Activity [22]: 17.9%
11 | C=C1C(=O)Oc2c(OC)cccc2[C@H]1[C@@H]1CCc2cc(OC)ccc2C1=O (relative stereo) | 17.5 µM | 0.87 µM | 3.61 µM | IC50 [13]: 4.87 µM; IC50 [21]: 13.6 µM
12 | C=C1C(=O)Oc2ccccc2[C@H]1[C@@H]1Cc2ccccc2C1=O | 17 µM | 705 µM | 247 µM | 
13 | C=C1C(=O)Oc2ccc(Cl)cc2[C@H]1[C@@H]1CCCC1=O (relative stereo) | 23 µM | > 1000 µM | 514 µM | 
14 | C=C1C(=O)Oc2ccc(Cl)cc2C1CC(C)=O (configuration not stated) | 16.3 µM | 427 µM | 289 µM | 
15 | C=C1C(=O)Oc2ccc(Cl)cc2[C@H]1[C@@H]1CCc2cc(OC)ccc2C1=O (relative stereo) | 77.5 µM | 1.59 µM | 5.67 µM | 
16 | C=C1C(=O)Oc2c(OC)cccc2[C@H]1[C@@H]1CCCC1=O (relative stereo) | 15 µM | 784 µM | 711 µM | 
17 | C=C1C(=O)Oc2c(OC)cccc2[C@H]1[C@@H]1Cc2ccccc2C1=O (relative stereo) | 8.57 µM | 4.66 µM | 5.56 µM | 
